From PubChem BioAssay (NCI) come the findings set out here.

Where “and” joins values, the source holds several entries; their conditions need not be identical. Equal values may be shown once.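 Five compound concentrations were applied to cells in 96-well plates for 48 hours; endpoints were derived by simple linear interpolation of the resulting dose-response curve. At the GI50, growth is halved. TGI denotes the concentration required for complete inhibition of growth.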

In the first assay the test system is A498 renal. As to the kind of experiment: inhibition of tumour cell growth, NCI panel, 48 h.
For the compound `COc1cc2c3c(c1)CCCN3CCC2`, the TGI is > 10 µM.
On the same count and under the same terms, then `CCOC(=O)C1C(c2ccc3c(c2)OCO3)c2c([nH][nH]c2=O)CC1(C)O` (configuration not stated), with > 100 µM; and `CC(=O)c1ccc2c(c1)CC1(C2)Cc2cc3c(cc2C1=O)CCC3` (configuration not stated), with 51.7 µM; and `CSc1nc2c(c(=O)[nH]1)N=C(c1ccc([N+](=O)[O-])cc1)CC(c1ccccc1)N2` (configuration not stated), with > 100 µM.
Still for that read-out and setting: then `CN(C)c1ccc(NN=C2SC(=Nc3ccccc3)C(=Nc3ccccc3)S2)cc1`, with > 100 µM; and `C=C(Br)CNC(=O)Nc1ccc(Cl)c(Cl)c1`, with 27.3 µM.
As to `CCC(C=O)P1(=O)OC(C)(C)CN1C(C)(C)C` (configuration not stated), the TGI was > 100 µM.
Still for that read-out and setting: as for `CC1CC(C)C(C#N)N(C)c2ccccc21` (configuration not stated), the figure is > 100 µM; as for `NC(N)=NCCCC(NC(=O)c1cccc2c(=O)c3ccccc3[nH]c12)C(=O)O` (configuration not stated), > 100 µM; as for `O=C(NNCC(O)COc1ccccc1)c1ccccc1` (configuration not stated), > 100 µM.
In the case of `COC(=O)[C@@H]1CC(C(C[N+](=O)[O-])c2ccc(O[Si](C)(C)C(C)(C)C)cc2)C(=O)N1C(=O)OC(C)(C)C` (some centres not stated), the TGI is > 100 µM.
Same read-out and setting: then `O=C(CCCN1CCC2(CC1)CC(c1ccccc1)OC2=O)c1ccc(F)cc1` (configuration not stated), with 74.5 µM.
The same measure, in the same setting: as for `O=C1NC(=O)C2C(=O)NC(=O)C1C2c1c(Cl)cccc1Cl` (configuration not stated), the figure is > 100 µM.
`COc1cc2c(c(OC)c1)/C(=C/Sc1ccccc1)C(=O)N(C(C)(C)C)C2`: the TGI worked out at 78.1 µM.
Take `CC(=O)C(CN(CC(C)C)CC(C)C)C(c1ccccc1)c1c(O)c2ccccc2oc1=O` (configuration not stated): the TGI was > 100 µM.

Another assay relates to MDA-MB-231 breast. Description: inhibition of tumour cell growth, NCI panel, 48 h.
As to `CCN1CCC(C)OP1(=O)Cc1ccccc1` (configuration not stated), the TGI is > 100 µM.
With `COc1cc2c3c(c1)CCCN3CCC2`, the TGI is > 10 µM.
Take `CCOC(=O)C1C(c2ccc3c(c2)OCO3)c2c([nH][nH]c2=O)CC1(C)O` (configuration not stated): the TGI is > 100 µM.
On to `CC1(C)C=Cc2c(cc(O)c3c(=O)c4cc(Cl)ccc4[nH]c23)O1`, for which the TGI was > 10 µM.
Still for that read-out and setting: then `CC(=O)c1ccc2c(c1)CC1(C2)Cc2cc3c(cc2C1=O)CCC3` (configuration not stated), with 49.6 µM.
Consider `CSc1nc2c(c(=O)[nH]1)N=C(c1ccc([N+](=O)[O-])cc1)CC(c1ccccc1)N2` (configuration not stated), for which the TGI came out at 78.8 µM.
`C=C(Br)CNC(=O)Nc1ccc(Cl)c(Cl)c1` showed a TGI of 32.9 µM.
Same read-out and setting: as for `CCC(C=O)P1(=O)OC(C)(C)CN1C(C)(C)C` (configuration not stated), the figure is > 100 µM.
The same measure, in the same setting: as for `CC1CC(C)C(C#N)N(C)c2ccccc21` (configuration not stated), the figure is > 100 µM; as for `NC(N)=NCCCC(NC(=O)c1cccc2c(=O)c3ccccc3[nH]c12)C(=O)O` (configuration not stated), > 100 µM; as for `O=C(NNCC(O)COc1ccccc1)c1ccccc1` (configuration not stated), > 100 µM.
Turning to `COC(=O)[C@@H]1CC(C(C[N+](=O)[O-])c2ccc(O[Si](C)(C)C(C)(C)C)cc2)C(=O)N1C(=O)OC(C)(C)C` (some centres not stated), the TGI was > 100 µM.
Regarding `O=C(CCCN1CCC2(CC1)CC(c1ccccc1)OC2=O)c1ccc(F)cc1` (configuration not stated), the TGI is > 100 µM.
The compound `COc1cc2c(c(OC)c1)/C(=C/Sc1ccccc1)C(=O)N(C(C)(C)C)C2` returned a TGI of 64.4 µM.

A further assay deals with HCT-116 colon. Description: inhibition of tumour cell growth, NCI panel, 48 h.
Turning to `CCN1CCC(C)OP1(=O)Cc1ccccc1` (configuration not stated), the TGI is > 100 µM.
On to `COc1cc2c3c(c1)CCCN3CCC2`, for which the TGI was > 10 µM.
Turning to `CCOC(=O)C1C(c2ccc3c(c2)OCO3)c2c([nH][nH]c2=O)CC1(C)O` (configuration not stated), the TGI was > 100 µM.
Still for that read-out and setting: as for `CC1(C)C=Cc2c(cc(O)c3c(=O)c4cc(Cl)ccc4[nH]c23)O1`, the figure is > 10 µM.
For the compound `CC(=O)c1ccc2c(c1)CC1(C2)Cc2cc3c(cc2C1=O)CCC3` (configuration not stated), the TGI came out at 44 µM.
In the case of `CSc1nc2c(c(=O)[nH]1)N=C(c1ccc([N+](=O)[O-])cc1)CC(c1ccccc1)N2` (configuration not stated), the TGI came to 47.1 µM.
As for `CN(C)c1ccc(NN=C2SC(=Nc3ccccc3)C(=Nc3ccccc3)S2)cc1`, the TGI was > 100 µM.
On the same count and under the same terms, as for `C=C(Br)CNC(=O)Nc1ccc(Cl)c(Cl)c1`, the figure is 32.7 µM; as for `CCC(C=O)P1(=O)OC(C)(C)CN1C(C)(C)C` (configuration not stated), > 100 µM.
Still for that read-out and setting: as for `CC1CC(C)C(C#N)N(C)c2ccccc21` (configuration not stated), the figure is > 100 µM.
Same read-out and setting: as for `NC(N)=NCCCC(NC(=O)c1cccc2c(=O)c3ccccc3[nH]c12)C(=O)O` (configuration not stated), the figure is > 100 µM; as for `O=C(NNCC(O)COc1ccccc1)c1ccccc1` (configuration not stated), > 100 µM.
Consider `COC(=O)[C@@H]1CC(C(C[N+](=O)[O-])c2ccc(O[Si](C)(C)C(C)(C)C)cc2)C(=O)N1C(=O)OC(C)(C)C` (some centres not stated), for which the TGI was > 100 µM.
As for `O=S1(=O)OCCOS(=O)(=O)C1(F)Br`, the TGI is > 100 µM.
As to `O=C(CCCN1CCC2(CC1)CC(c1ccccc1)OC2=O)c1ccc(F)cc1` (configuration not stated), the TGI is > 100 µM.
Still for that read-out and setting: as for `O=C1NC(=O)C2C(=O)NC(=O)C1C2c1c(Cl)cccc1Cl` (configuration not stated), the figure is > 58.8 µM.
Still for that read-out and setting: as for `COc1cc2c(c(OC)c1)/C(=C/Sc1ccccc1)C(=O)N(C(C)(C)C)C2`, the figure is 40.2 µM; as for `CC(=O)C(CN(CC(C)C)CC(C)C)C(c1ccccc1)c1c(O)c2ccccc2oc1=O` (configuration not stated), > 100 µM.

A further assay relates to BT-549 breast. Description: inhibition of tumour cell growth, NCI panel, 48 h.
In the case of `CCN1CCC(C)OP1(=O)Cc1ccccc1` (configuration not stated), the TGI was > 100 µM.
`CC1(C)C=Cc2c(cc(O)c3c(=O)c4cc(Cl)ccc4[nH]c23)O1` showed a TGI of 8.06 µM.
Take `CSc1nc2c(c(=O)[nH]1)N=C(c1ccc([N+](=O)[O-])cc1)CC(c1ccccc1)N2` (configuration not stated): the TGI was > 100 µM.
Take `CCC(C=O)P1(=O)OC(C)(C)CN1C(C)(C)C` (configuration not stated): the TGI was > 100 µM.
In turn, `COc1cc2c(c(OC)c1)/C(=C/Sc1ccccc1)C(=O)N(C(C)(C)C)C2` registered a TGI of 83 µM.

Another assay has as its system RPMI-8226 leukemia. As to the kind of experiment: inhibition of tumour cell growth, NCI panel, 48 h.
On to `CCN1CCC(C)OP1(=O)Cc1ccccc1` (configuration not stated), for which the TGI was > 100 µM.
The same measure, in the same setting: as for `COc1cc2c3c(c1)CCCN3CCC2`, the figure is > 10 µM.
Take `CCOC(=O)C1C(c2ccc3c(c2)OCO3)c2c([nH][nH]c2=O)CC1(C)O` (configuration not stated): the TGI is > 100 µM.
Still for that read-out and setting: then `CC1(C)C=Cc2c(cc(O)c3c(=O)c4cc(Cl)ccc4[nH]c23)O1`, with 6.27 µM; and `CC(=O)c1ccc2c(c1)CC1(C2)Cc2cc3c(cc2C1=O)CCC3` (configuration not stated), with 35.2 µM.
On the same count and under the same terms, as for `CSc1nc2c(c(=O)[nH]1)N=C(c1ccc([N+](=O)[O-])cc1)CC(c1ccccc1)N2` (configuration not stated), the figure is 57.5 µM; as for `CN(C)c1ccc(NN=C2SC(=Nc3ccccc3)C(=Nc3ccccc3)S2)cc1`, > 100 µM; as for `C=C(Br)CNC(=O)Nc1ccc(Cl)c(Cl)c1`, 50.7 µM.
On to `CCC(C=O)P1(=O)OC(C)(C)CN1C(C)(C)C` (configuration not stated), for which the TGI was > 100 µM.
On the same count and under the same terms, as for `CC1CC(C)C(C#N)N(C)c2ccccc21` (configuration not stated), the figure is > 100 µM.
For `NC(N)=NCCCC(NC(=O)c1cccc2c(=O)c3ccccc3[nH]c12)C(=O)O` (configuration not stated), the TGI is > 100 µM.
The same measure, in the same setting: then `O=C(NNCC(O)COc1ccccc1)c1ccccc1` (configuration not stated), with > 100 µM.
Take `COC(=O)[C@@H]1CC(C(C[N+](=O)[O-])c2ccc(O[Si](C)(C)C(C)(C)C)cc2)C(=O)N1C(=O)OC(C)(C)C` (some centres not stated): the GI50 was 3.2 µM and 23.7 µM; the TGI is 72.4 µM and 95 µM.
Regarding `O=S1(=O)OCCOS(=O)(=O)C1(F)Br`, the TGI was > 100 µM.
